Laboratory results published in patent publication US8084592B2, “Multivalent entrain-and-amplify immunotherapeutics for carcinoma” (MannKind Corporation, priority 2005, dated 2011).
Entries after “also recorded” stand apart in the source; their conditions may differ. Non-standard residues stand in square brackets, D forms with d. No end group written: not given here. Nle = CCCC[C@H](N)C(=O)O; Nva = CCC[C@H](N)C(=O)O

Assays:
[1] = tested on: T cells that recognized native PSMA288-297 peptide; assay: Cross-reactive immunogenicity of PSMA288-297 analogs, IFN-γ ELISPOT; type: in vivo, HHD transgenic mice; settings: 25 μg peptide + 12.5 μg pI:C per lymph node, day 0, 3, 14, 17
Method: Groups of HHD transgenic mice (n=8) were immunized with peptide (natural epitope PSMA288-297, or analogs bearing substitutions at primary or secondary anchor residues) by direct inoculation into the inguinal lymph nodes, with 25 μg in […]+12.5 μg of pI:C to each lymph node at day 0, 3, 14 and 17.
Mice were sacrificed at 10 days after the last boost, and splenocytes prepared and assessed for IFN-γ production by ELISPOT analysis. Various numbers of splenocytes/well were stimulated with 10 μg/ml of native peptide in ELISPOT plates coated with anti-IFN-γ antibody. At 48 hours after incubation, the assay was developed and the frequency of cytokine-producing T cells that recognized native PSMA288-297 peptide was automatically counted. The data is represented in FIG. 15 as the number of spot forming colonies/well (mean of triplicates+SD).

[2] = tested on: T cell line specific for the native epitope; assay: Cross-reactivity of PSMA288-297 analogs: IFN-gamma secretion from T cell line; type: cell-based, HHD transgenic mice; settings: stimulating with 10 μg/ml of analog (approximately 10 μM)
From the text: A methodology was devised to allow rapid and rational screening of peptide analogs in a fashion coherent with proposed methods of use and modeling the overall immunologic properties (Kon and Koff relative to MHC interaction and TCR binding properties in an integrated fashion). In some instances, the method included generating T cell lines against a natural (non-mutated) epitope (SSX-241-49), and using an immunization strategy potent enough to generate a useful response in transgenic mice carrying human MHC (such as the A2 allele). Peptide analogs were interrogated ex vivo in the presence of competent APCs and the functional impact of T cells specific for natural (non-mutated) epitopes measured. The evaluation was done at various concentrations of analog, because the expected effect was biphasic in the case of cross reactive peptides (activating at limited concentrations and inhibiting at higher concentrations, due to antigen-induced cell death, AICD). Measurement of the following three parameters were used to define basic and useful characteristics of peptide analogs: • 1. […]
(§1) The method used for the generation of T cell lines was the following: HHD transgenic mice carrying an A2 human allele (Pascolo et al., J. Exp Med. 185(12):2043-51, 1997, which is hereby incorporated herein by reference in its entirety) were immunized with 50 μg of SSX-2 natural epitope (41-49) admixed with 25 μg of plpC at day 0, 4, 14 and 18 by bilateral administration into the inguinal lymph nodes. […] The supernatant was harvested and the concentration of IFN-gamma assessed by standard methods such as ELISA.
Using the procedures described in application Ser. Nos. 11/455,278 and 11/454,633, each of which is hereby incorporated by reference in its entirety, the binding characteristics of PSMA288-297 and analogs were assessed in comparison to each other see (see FIG. 12). […] Cross reactivity with the native epitope was assessed by using the analog peptides to stimulate IFN-gamma secretion from a T cell line specific for the native epitope, essentially as described in Example 12. […]

[3] = tested on: T cell line specific for the native epitope; assay: Cross-reactivity of PRAME425-433 analogs: IFN-gamma secretion from T cell line; type: cell-based, HHD transgenic mice; settings: analog peptide at approximately 0.3 μM, normalized to native peptide
From the text: A methodology was devised to allow rapid and rational screening of peptide analogs in a fashion coherent with proposed methods of use and modeling the overall immunologic properties (Kon and Koff relative to MHC interaction and TCR binding properties in an integrated fashion). In some instances, the method included generating T cell lines against a natural (non-mutated) epitope (SSX-241-49), and using an immunization strategy potent enough to generate a useful response in transgenic mice carrying human MHC (such as the A2 allele). Peptide analogs were interrogated ex vivo in the presence of competent APCs and the functional impact of T cells specific for natural (non-mutated) epitopes measured. […]
as §1, with “ELISA. […]” for “ELISA.”

[4] = tested on: splenocytes responding to the PRAME425-433 peptide; assay: Cross-reactive immunogenicity of PRAME analog, IFN-γ ELISA of splenocytes; type: in vivo, HHD transgenic mice; settings: pCTLR2 plasmid prime, peptide boost 2.5 μg day 28 and 31, versus native peptide boost
Method: This was followed by two peptide boosts (2.5 μg) at day 28 and 31, of native peptide or the PRAME epitope analog L426Nva L433Nle.
Mice were sacrificed at 10 days after the last boost, and splenocytes prepared and assessed for IFN-γ production after in vitro stimulation at 0.5×10^6 cells/well, with 10 μg/ml of native peptide.

HLA-A*0201 = HLA-A*0201 (Homo sapiens, UniProt P04439, D140Y/D185E/D98H/E176V/E277Q/G131W/G231S/I119V/I121R/I166T/I218V/L300P/L318F/N151K/N90K/P208A/P217A/Q86G/Q94H/R138H/R169H/T345S); assay: HLA-A*0201 binding characteristics of PRAME425-433 and analogs
Method: The positive control for binding was melan-A26-35 A27L. […] Cross reactivity with the native epitope was assessed by using the analog peptides to stimulate IFN-gamma secretion from a T cell line specific for the native epitope, essentially as described in Example 12. The data shown in FIGS. 16-18 were generated by stimulating with analog peptide at approximately 0.3 μM. […] In some cases, the reported values are the average of two determinations.

MHC class I (A2.1) = MHC class I (A2.1) (Homo sapiens, UniProt P04439, D140Y/D185E/D98H/E176V/E277Q/G131W/G231S/I119V/I121R/I166T/I218V/L300P/L318F/N151K/N90K/P208A/P217A/Q86G/Q94H/R138H/R169H/T345S); assay: Binding characteristics (affinity, stability) of PSMA288-297 and analogs

Substance | immunogenicity against the native epitope [1] | IFN-gamma production (cross-reactivity) compared to native peptide [2] | IFN-γ production (cross-reactivity) compared to native peptide [3] | other results
GLPSIPVHPV [PSMA288-297 I297V] | increased priming of immune responses against the native epitope | increased the amount of IFN-gamma produced |  | 
PRAME425-433 C-terminal amide: PRAME425-433 with carboxy-terminus modified by the addition of an amide group (SLLQHLIGL-NH2) |  |  | within twofold of the native peptide | 
SNvaLQHLIGNle (S[Nva]LQHLIG[Nle]) [L426Nva L433Nle] |  |  | significant level of cross-reactivity | IFN-γ production in response to the PRAME425-433 peptide (ELISA) [4]: significant enhancement of IFN-γ production; binding characteristics (affinity and stability) (HLA-A*0201): similar, somewhat improved binding characteristics
PSMA288-297 PO Nva: PSMA288-297 analog, Nva at PO | slightly higher (but significant) activity than the native peptide | increased the amount of IFN-gamma produced |  | stability of binding (half-time of dissociation) compared to native peptide (MHC class I (A2.1)): improved the stability of binding
PSMA288-297 P1 Abu: PSMA288-297 analog, Abu at P1 | slightly higher (but significant) activity than the native peptide | marginally similar cross-reactivity |  | 
GLPSIPVHPI (homo sapien) [PSMA288-297, reference compound] | poorly immunogenic; also recorded: poor immunogenicity |  |  | binding characteristics (MHC class I (A2.1)): generally superior binding characteristics
